Experimental data published in US10206900B2, “Treatments for fibrotic diseases” (MOR RESEARCH APPLICATIONS LTD., priority 2013, dated 2019).

Assays:
CTGF = CTGF transcription by qPCR in RPE cells; assay type: cell-based; details: 1 μM, TGF-β1, 6 h, 16 h and 24 h
Procedure: (§1) FIG. 3A: RPE cells were plated on fibronectin-coated glass coverslips, serum-starved for 16 hours, pretreated with 5Z-7-oxozeaenol (1 μM) or SB431542 (10 μM), or DMSO for 1 hour, then treated with or without TGF-β1 for 2 days. Following treatment, the cells were stained with rhodamine-phalloidin (actin fibers-red) and DAPI (blue) and visualized by confocal microscopy. Scale bars: […]. FIG. 3B: Serum-starved RPE cells pretreated with 5Z-7-oxozeaenol (1 μM) or DMSO for 1 hour, and were exposed to TGF-β as in FIG. 3A. Total RNA was extracted at each time point and qPCR was performed. Transcription levels of CTGF were determined after 6 h, 16 h and 24 h. Bars represent the specific mRNA amount relative to GAPDH mRNA in the same samples. All experiments were performed in triplicates. A representative histogram from two independent experiments is shown. FIG. 3C: RPE cells were plated and treated as in FIG. 3A. Following treatment, the cells were immunostained with E-cadherin antibodies (green) and DAPI (blue). Representative photographs of two independent experiments are shown. CTGF, an important stimulant of fibrosis, functions as a downstream mediator of TGF-β, stimulating cell proliferation and cell matrix deposition (He et al., Invest Ophthalmol Vis Sci 2008, 49:4078-4088). We examined the association between TGF-β1 and CTFG expression in RPE cells by Real Time PCR (FIG. 3B).

p38 = p38 phosphorylation by immuno-blot in RPE cells; assay type: cell-based; details: 1 μM for 1 hour then TGF-β 2.5 ng/ml
Procedure: FIG. 4A-4C: Inhibition of TAK1 abolishes the activation of TGF-β cascades. FIG. 4A: Serum-starved RPE cells were pretreated with or without with 5Z-7-oxozeaenol (1 μM) for 1 hour and then with TGF-β (2.5 ng/ml) for the indicated times. Total protein extracts were analyzed by western blot using the indicated antibodies. […] FIG. 4B: Levels of phospho-Smad2/3 were quantified and normalized to total Smad2/3 FIG. 4C: Statistical analysis of p-p38 and p-Smad3 activation normalized to p38 and Smad3 respectively, with or without TGF-β stimulation. The histograms present results of 5 independent experiments. Statistics were computed using student t-test (Two tailed distribution equal variance). Data is expressed as the Mean±SD. RPE cells were treated with or without 5Z-7-oxozeaenol followed by TGF-β1 treatment and Smad2/3 phosphorylation patterns were examined by immuno-blots. […] Upon TGF-β1 stimulation, the phosphorylation of p38 increased, reaching a peak at 60 min (FIGS. 4A and C).

RPE cells = test: Cell size / morphology (rhodamine-phalloidin staining) upon TGF-β1; assay type: cell-based; details: 5Z-7-oxozeaenol 1 μM or SB431542 10 μM prior to TGF-β1
Procedure: as §1, with “In addition to the secretion” for “CTGF, an important stimulant”, “MMPs” for “fibrosis, functions as a downstream mediator of TGF-β, stimulating cell proliferation”, “increased migratory capacity, several morphological changes underlie EMT (Lamouille” for “cell matrix deposition (He”, “I 2007, 178:437-451). […]” for “Invest Ophthalmol Vis Sci 2008, 49:4078-4088). We examined the association between TGF-β1 and CTFG expression in RPE cells by Real Time PCR (FIG. 3B).”

Smad2/3 = Smad2/3 phosphorylation by immuno-blot in W2b liver hepatocytes; assay type: cell-based; details: 1 μM for 1 hour, TGF-β 2.5 ng/ml
Procedure: FIG. 10: Inhibition of TAK1 abolishes the activation of TGF-β cascades in liver cells. TGF-β1 up-regulates-Smad 2/3 and p38 activation and E-cadherin expression via TAK1 activity in hepatic cells. W2B liver hepatocytes cells were treated with or without 5Z-7-oxozeaenol followed by TGF-β treatment and Smad2/3 and p38 phosphorylation patterns were examined by immuno-blots. W2b liver hepatocytes cells were treated with or without 5Z-7-oxozeaenol (1 μM) for 1 hour followed by TGF-β treatment (2.5 ng/ml) for the indicated times. Smad2/3 and p38 phosphorylation patterns were examined by immuno-blots as described above.

c57Black mice = test: DSS-induced colitis in mice, fibrotic markers; assay type: in vivo; details: DSS 1.5% eight days, IP 180 ng per animal daily
Procedure: C57black mice were treated with dextran sodium sulfate (DSS)-S 1.5% diluted in water for eight days and with or without 5Z-7 (1 uM) was IP injected total 180 ng for each animal Daily. After eight days the mice underwent evaluation to detect abnormalities in the Colom structure. N=14 mice for each group, Student T-test was used to determine the p value. The chart in FIG. 13 compares known markers that are considered as the main morphological phenotype for colitis. […] C57black mice were treated with dextran sodium sulfate (DSS)-S 1.5% diluted in water for eight days and with or without 5Z-7 (1 uM) IP injected total 180 ng for each animal daily. After eight days the mice underwent evaluation to detect abnormalities in the colon structure. In mice treated with DSS all markers of fibrosis such as: granulation, Transparency, fibrin and blood vessels were elevated by the DSS.

## COc1cc(O)c2c(c1)/C=C/C[C@H](O)[C@H](O)C(=O)/C=C\C[C@H](C)OC2=O [5Z-7-oxozeaenol]
CTGF
  levels of CTGF (mRNA relative to GAPDH): gradually reduced the levels of CTGF
p38
  p38 activation (phosphorylation) upon TGF-β1 stimulation: abolished p38 activation
RPE cells
  TGF-β1-induced increase in cell size (hypertrophic RPE cells): minimal number of hypertrophic RPE cells
Smad2/3
  Smad2/3 activation: barely detectable
c57Black mice
  fibrotic markers of colitis (granulation, Transparency, fibrin, blood vessels): reduce the fibrotic markers
